Laboratory results reported in paper PMC10671360, “In Silico and In Vitro Study towards the Rational Design of 4,4′-Disarylbisthiazoles as a Selective α-Synucleinopathy Biomarker” (International Journal of Molecular Sciences, 2023).

Key:
[1] = target: tau fibrils (Homo sapiens, UniProt P10636); experiment: Competition binding assay against [^3H]DCVJ, tau fibrils; conditions: [^3H]DCVJ was used (20 nM); tau aggregates 125 nM
Procedure: Recombinant tau monomer (R&D systems, Minneapolis, MN, USA) was dissolved in 20 mM of Tris HCl, pH 8.0, 100 mM of NaCl, 25 μM of low-MW heparin, and 0.5 mM of dithiothreitol to a final concentration of 300 µg/mL. The mixture was incubated with shaking at 900 rpm at 37 °C for 48 h. To separate the non-aggregated monomers from the formed fibrils, the reaction mixture was centrifuged at 12,000× g for 5 min, and the resulting pellet was washed three times with 500 μL of 20 mM Tris-HCl, pH 7.4. The supernatants from the three centrifugation steps were combined, and the concentration of the monomer in the resulting supernatant was determined in a BCA assay(Thermo Fisher Scientific, Waltham, MA, USA) (with a BSA standard curve). Determination of the concentration of fibrils formed was carried out by subtracting the amount of tau peptide monomer in the supernatant from the initial amount used for fibrillation. The pellets of the fibrils obtained above (Section 4.2.1) were resuspended in 20 mM of Tris-HCl, pH 7.4 and diluted as needed for the binding assays. A fixed concentration of [^3H]DCVJ (10 nM) and α-synuclein aggregates (125 nM), prepared as described above (Section 4.2.3), was used with different final concentrations of the DABTAs from 0.01 to 100 nM (see SI Figure S1). The experiment was carried out in quintuplicate for each concentration. The mixture was incubated for 2 h in a final volume of 200 μL per well after dilution with 20 mM of Tris-HCl, pH 7.4. The incubated mixtures were filtered through a Perkin Elmer GF/B glass filter via a TOMTEC cell harvester and immediately washed thrice with 1 mL of deionized water. The filters containing the bound ligands were dried and afterwards mixed with 3 mL of BetaPlate Scint solution (Perkin Elmer Life Sciences, Waltham, MA, USA) and left there for 2 h before counting in a Wallac 1450 MicroBeta TriLux Liquid Scintillation Counter (PerkinElmer Life Sciences, Waltham, MA, USA). For the determination of the inhibition constants, data were analyzed using GraphPad Prism software (version 7.0) to obtain IC50 values by fitting the data to the equation Y = bottom + (top − bottom)/(1 + 10(x − log IC50)). Ki values were calculated from IC50 values using the equation Ki = IC50/(1 + [radioligand]/Kd). […] Further protocol was carried out as for [^3H]DCVJ (see SI Figure S3). Fixed concentrations (125 nM) of Aβ1−42, tau aggregates, and [^3H]DCVJ (10 nM and 20 nM for the Aβ1−42 and tau competition experiments respectively) were used with different concentrations of cold versions of the tracers from 1 to 1000 nM (See SI Figure S2). The experiment was performed in quadruplicate for each concentration. Further procedures followed the same already described in Section 4.2.3.1.

[2] = Solubility in the incubation medium of the binding assays; type: physicochemical; conditions: incubation buffer of the binding assays
[3] = target: T1, recombinant α-syn fibrils (Homo sapiens, UniProt P37840); experiment: Competition binding assay against [^3H]PiB, α-syn fibrils; conditions: for Selectivity Aβ/α-syn / Selectivity tau/α-syn: ratio of Ki, [^3H]PiB was used
T1 construct: made in house

[4] = target: T2, Aβ1−42 fibrils (Homo sapiens, UniProt P05067); experiment: Competition binding assay against [^3H]PiB, Aβ1−42 fibrils; conditions: read-out: Ki Aβ
T2 construct: 1 mg of β-amyloid1–42 peptide (Abcam, Cambridge, UK); purchased Abcam
Procedure: After the dissolution of 1 mg of β-amyloid1–42 peptide (Abcam, Cambridge, UK) in 50 μL of DMSO, 925 μL of Milli-Q® water was added to it, and the mixture was stirred. Finally, 25 μL of 1M Tris HCl, pH 7.4 was added to bring the final peptide concentration to 1 mg/mL. The mixture was then left to incubate at 37 °C for 30 h with shaking at 900 rpm. To separate the non-aggregated monomers from the formed fibrils, the reaction mixture was centrifuged at 12,000× g for 5 min, and the resulting pellet was washed three times with 500 μL of 20 mM Tris-HCl, pH 7.4. The supernatants from the three centrifugation steps were combined, and the concentration of the monomer in the resulting supernatant was determined in a BCA assay (Thermo Fisher Scientific, Waltham, MA, USA) (with a BSA standard curve). Determination of the concentration of fibrils formed was carried out by subtracting the amount of β-amyloid1−42 peptide monomer in the supernatant from the initial amount used for fibrillation.
The pellets of the fibrils obtained above (Section 4.2.1) were resuspended in 20 mM of Tris-HCl, pH 7.4 and diluted as needed for the binding assays.
A fixed concentration of [^3H]DCVJ (10 nM) and α-synuclein aggregates (125 nM), prepared as described above (Section 4.2.3), was used with different final concentrations of the DABTAs from 0.01 to 100 nM (see SI Figure S1). The experiment was carried out in quintuplicate for each concentration. The mixture was incubated for 2 h in a final volume of 200 μL per well after dilution with 20 mM of Tris-HCl, pH 7.4. The incubated mixtures were filtered through a Perkin Elmer GF/B glass filter via a TOMTEC cell harvester and immediately washed thrice with 1 mL of deionized water. The filters containing the bound ligands were dried and afterwards mixed with 3 mL of BetaPlate Scint solution (Perkin Elmer Life Sciences, Waltham, MA, USA) and left there for 2 h before counting in a Wallac 1450 MicroBeta TriLux Liquid Scintillation Counter (PerkinElmer Life Sciences, Waltham, MA, USA). For the determination of the inhibition constants, data were analyzed using GraphPad Prism software (version 7.0) to obtain IC50 values by fitting the data to the equation Y = bottom + (top − bottom)/(1 + 10(x − log IC50)). Ki values were calculated from IC50 values using the equation Ki = IC50/(1 + [radioligand]/Kd). […] Further protocol was carried out as for [^3H]DCVJ (see SI Figure S3).
Further procedures followed the same already described in Section 4.2.3.1 (See SI Figure S4).

tau fibrils, sequence (P10636 2-758): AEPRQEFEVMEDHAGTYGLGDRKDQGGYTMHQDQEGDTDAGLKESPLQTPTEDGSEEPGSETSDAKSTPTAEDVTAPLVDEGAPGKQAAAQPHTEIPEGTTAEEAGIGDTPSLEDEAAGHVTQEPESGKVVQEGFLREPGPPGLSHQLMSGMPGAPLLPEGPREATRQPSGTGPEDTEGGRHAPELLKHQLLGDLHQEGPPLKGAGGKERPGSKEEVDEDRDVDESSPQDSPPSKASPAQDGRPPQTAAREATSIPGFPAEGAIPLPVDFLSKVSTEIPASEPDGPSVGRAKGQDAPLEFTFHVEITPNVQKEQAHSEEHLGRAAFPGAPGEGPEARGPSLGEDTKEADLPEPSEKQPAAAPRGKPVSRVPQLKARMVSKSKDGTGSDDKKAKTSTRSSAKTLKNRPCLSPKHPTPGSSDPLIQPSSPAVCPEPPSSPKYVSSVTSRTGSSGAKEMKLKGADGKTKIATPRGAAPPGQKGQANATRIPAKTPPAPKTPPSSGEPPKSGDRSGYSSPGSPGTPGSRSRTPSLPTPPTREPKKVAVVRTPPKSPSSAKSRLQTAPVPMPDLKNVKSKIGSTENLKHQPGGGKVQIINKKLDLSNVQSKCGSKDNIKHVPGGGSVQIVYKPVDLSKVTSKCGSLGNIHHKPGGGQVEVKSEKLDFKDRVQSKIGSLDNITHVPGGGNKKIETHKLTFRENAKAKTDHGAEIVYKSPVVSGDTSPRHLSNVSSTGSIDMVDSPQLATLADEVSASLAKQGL
T2 sequence (P05067 672-713): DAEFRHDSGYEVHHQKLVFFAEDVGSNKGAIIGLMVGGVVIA

SMILES | Ki [1] [µM] | solubility in the incubation medium [2] | Ki [3] [µM] | Selectivity Aβ/α-syn [3] | Selectivity tau/α-syn [3] | Ki [4] [µM]
Fc1ncc(-c2csc(-c3nc(-c4cnc5c(c4)OCO5)cs3)n2)cn1 [d10] | > 1 | decreased solubility | 0.00475 | 45.1 | 91.5 | 0.214
FCCOc1cnc(-c2csc(-c3nc(-c4cnc5c(c4)OCO5)cs3)n2)nc1 [f4, 6-(4′-(5-(2-Fluoroethoxy)pyrimidin-2-yl)-[2,2′-bithiazol]-4-yl)-[1,3]dioxolo[4,5-b]pyridine] | 0.465 |  | 0.00151 | 122.6 | 507.5 | 0.185
FCCOc1cnc(-c2csc(-c3nc(-c4ccc5c(c4)OCO5)cs3)n2)nc1 [f5, 4-(Benzo[d][1,3]dioxol-5-yl)-4′-(5-(2-fluoroethoxy)pyrimidin-2-yl)-2,2′-bithiazole] | 0.515 |  | 0.00288 | 53.8 | 179.2 | 0.155
FCCOCCOc1cnc(-c2csc(-c3nc(-c4ccc5c(c4)OCO5)cs3)n2)nc1 [f6, 4-(Benzo[d][1,3]dioxol-5-yl)-4′-(5-(2-(2-fluoroethoxy)ethoxy)pyrimidin-2-yl)-2,2′-bithiazole] | 0.437 |  | 0.00489 | 19.8 | 74.1 | 0.0967
